PMC7721803, “Development of a penem antibiotic against Mycobacteroides abscessus” (Communications Biology, 2020)
In brackets after ≈: the same amount, converted by molar mass. Like-named read-outs stand apart in the source and are kept apart here.

Key:
[1] = tested on: Mycobacterium tuberculosis reference strain H37Rv; assay: MIC by broth dilution method; assay type: cell-based; conditions: 336 h, 37 °C, 14 days
Experimental: MIC of each drug against M. abscessus was determined using the broth dilution method[27] in accordance with CLSI guidelines specific for this organism, except that Middlebrook 7H9 broth was used instead of cation-adjusted Mueller–Hinton broth. Powdered drug stocks were reconstituted in dimethyl sulfoxide and twofold serial dilutions were prepared in Middlebrook 7H9 broth to obtain final drug concentrations ranging from 512 to 0.5 µg/mL in 96-well plates. 10^5 colony forming units (CFU)/mL of M. abscessus from an exponentially growing culture were added to each well. M. abscessus cultured without drug and 7H9 broth alone were included in each plate as positive and negative controls, respectively. […] Growth of M. abscessus or lack thereof was assessed by visual inspection and an MIC for each drug was recorded as the lowest concentration at which M. abscessus growth was not observed. Results are reported as medians determined from three independent biological replicates. […] Middlebrook 7H9 broth was used for this assay and growth or lack thereof of M. tuberculosis was assessed after incubation at 37 °C for 14 days.

[2] = Mouse plasma protein binding assay (rapid equilibrium dialysis); assay type: in vitro ADME; conditions: mouse plasma/serum, 4 h
Experimental: The plasma protein binding assay was performed with a Rapid Equilibrium Dialysis (RED) device (Thermo Scientific, Rockford, IL) according to the manufacturer’s directions and as previously described. […] Aliquots were taken at 30 min and 4 h, diluted with phosphate-buffered saline (PBS), and quenched in 75 µL cold acetonitrile/water (9:1) + 0.1% formic acid mixture containing 5 µM internal standard 1,8-diazabicyclo(5.4.0)undec-7-ene (DBU). The resulting mixture was incubated at −80 °C for 30 min and subjected to centrifugation at 20,000 × g for 20 min.

[3] = tested on: M. abscessus; assay: MIC by broth dilution method (Middlebrook 7H9); assay type: cell-based, Mycobacteroides abscessus
[4] = tested on: M. abscessus ATCC 19977; assay type: cell-based, Mycobacteroides abscessus
[5] = Stability in mouse plasma; assay type: in vitro ADME; conditions: 5 μM, 37 °C, over 4 h
[6] = PK simulation with one-compartmental model (plasma-free drug, fT>MIC); parameters: species or system BALB/c mice
Experimental: All procedures involving mice were approved by the Animal Care and Use Committee of Johns Hopkins University. T405 was dissolved in PBS. […] Blood was sampled from three mice per group per time point by mandibular vein puncture or cardiac puncture at the following time points: 5, 15, 30, 60, 120, and 240 min post-dose. Plasma was separated in heparin-containing tubes and frozen. […] Concentration–time data were analyzed by standard non-compartmental and compartmental techniques using WinNonlin (version 7.0; Pharsight, Mountain View, CA). […] A plasma free drug fraction of 2% of the total drug concentration was included in the simulations.

C[C@@H](O)C1C(=O)N2C(C(=O)O)=C(SC3CN(C4=NCCS4)C3)SC12 (stereo in doubt) [T405]
MIC [1]: 0.5 to 1 µg/mL (≈ 1.29 to 2.58 µM)
blood plasma binding (bound) [2]: 98%
strains exhibiting MICs of ≤4 µg/mL ([3]; 20 clinical M. abscessus strains): 17/20
MIC of T405 with avibactam ([3]; ATCC 19977, avibactam 4 µg/mL): 0.5 µg/mL
MIC50 ([3]; Mycobacteroides abscessus): 2 µg/mL (≈ 5.16 µM)
MIC90 ([3]; Mycobacteroides abscessus): 8 µg/mL (≈ 20.6 µM)
MIC ([3]; Mycobacteroides abscessus, ATCC19977, reference strain ATCC 19977): 2 µg/mL (≈ 5.16 µM)
MIC ([3]; Mycobacteroides abscessus, clinical isolate 1N): 2 µg/mL (≈ 5.16 µM)
MIC ([3]; Mycobacteroides abscessus, clinical isolate 2N): 2 µg/mL (≈ 5.16 µM)
MIC ([3]; Mycobacteroides abscessus, clinical isolate 3N): 2 µg/mL (≈ 5.16 µM)
MIC ([3]; Mycobacteroides abscessus, clinical isolate 4N): 1 µg/mL (≈ 2.58 µM)
MIC ([3]; Mycobacteroides abscessus, clinical isolate 5N): 1 µg/mL (≈ 2.58 µM)
MIC ([3]; Mycobacteroides abscessus, clinical isolate 8N): 4 µg/mL (≈ 10.3 µM)
MIC ([3]; Mycobacteroides abscessus, clinical isolate 11N): 8 µg/mL (≈ 20.6 µM)
MIC ([3]; Mycobacteroides abscessus, clinical isolate 13N): 1 µg/mL (≈ 2.58 µM)
MIC ([3]; Mycobacteroides abscessus, clinical isolate 14N): 8 µg/mL (≈ 20.6 µM)
MIC ([3]; Mycobacteroides abscessus, clinical isolate 202): 2 µg/mL (≈ 5.16 µM)
MIC ([3]; Mycobacteroides abscessus, clinical isolate 203): 2 µg/mL (≈ 5.16 µM)
MIC ([3]; Mycobacteroides abscessus, clinical isolate 204): 8 µg/mL (≈ 20.6 µM)
MIC ([3]; Mycobacteroides abscessus, clinical isolate 214): 1 µg/mL (≈ 2.58 µM)
MIC ([3]; Mycobacteroides abscessus, clinical isolate 215): 2 µg/mL (≈ 5.16 µM)
MIC ([3]; Mycobacteroides abscessus, clinical isolate JH1801): 1 µg/mL (≈ 2.58 µM)
MIC ([3]; Mycobacteroides abscessus, clinical isolate JH1802): 4 µg/mL (≈ 10.3 µM)
MIC ([3]; Mycobacteroides abscessus, clinical isolate JHH2): 4 µg/mL (≈ 10.3 µM)
MIC ([3]; Mycobacteroides abscessus, clinical isolate JHH4): 2 µg/mL (≈ 5.16 µM)
MIC ([3]; Mycobacteroides abscessus, clinical isolate JHH9): 4 µg/mL (≈ 10.3 µM)
MIC ([3]; Mycobacteroides abscessus, clinical isolate JHHKB): 2 µg/mL (≈ 5.16 µM)
Reduction of T405 MIC by addition of avibactam ([3]; avibactam 4 µg/mL, ATCC 19977 and 10 clinical isolates): two-fold (7 strains) or fourfold (2 strains)
Reduction in the frequency of resistance on addition of avibactam ([4]; T405 2 µg/mL with vs without avibactam 256 µg/mL): ~3 log
Resistance frequency ([4]; T405 at MIC (2 µg/mL) combined with avibactam at its MIC of 256 µg/mL): 5.8 × 10^−9
Resistance frequency ([4]; drug alone at its individual MIC (T405 2 µg/mL, imipenem 8 µg/mL)): 2.0 × 10^−6
Frequency of resistance higher than that for imipenem ([4]; each at its MIC): approximately 1 log
stability in mouse plasma [5]: no measurable degradation
simulated plasma-free T405 concentration ([6]; 25mg/kg alone, 0.083 h): 3120 ng/mL
simulated plasma-free T405 concentration ([6]; 25mg/kg alone, 0.25 h): 3273.33 ng/mL
simulated plasma-free T405 concentration ([6]; 25mg/kg alone, 0.5 h): 2446 ng/mL
simulated plasma-free T405 concentration ([6]; 25mg/kg alone, 1 h): 1212.67 ng/mL
simulated plasma-free T405 concentration ([6]; 25mg/kg alone, 2 h): 526 ng/mL
simulated plasma-free T405 concentration ([6]; 25mg/kg alone, 4 h): 131.67 ng/mL
simulated plasma-free T405 concentration ([6]; 25mg/kg alone, 6 h): 29.76 ng/mL
simulated plasma-free T405 concentration ([6]; 25mg/kg alone, 8 h): 6.87 ng/mL
simulated plasma-free T405 concentration ([6]; 25mg/kg alone, 10 h): 1.58 ng/mL
simulated plasma-free T405 concentration ([6]; 25mg/kg alone, 12 h): 0.37 ng/mL
simulated plasma-free T405 concentration ([6]; 25mg/kg alone, 16 h): 0.02 ng/mL
simulated plasma-free T405 concentration ([6]; 25mg/kg alone, 20 h): 0 ng/mL
simulated plasma-free T405 concentration ([6]; 25mg/kg alone, 24 h): 0 ng/mL
simulated plasma-free T405 concentration ([6]; 150mg/kg alone, 0.083 h): 18720 ng/mL
simulated plasma-free T405 concentration ([6]; 150mg/kg alone, 0.25 h): 19640 ng/mL
simulated plasma-free T405 concentration ([6]; 150mg/kg alone, 0.5 h): 14676 ng/mL
simulated plasma-free T405 concentration ([6]; 150mg/kg alone, 1 h): 7276 ng/mL
simulated plasma-free T405 concentration ([6]; 150mg/kg alone, 2 h): 3156 ng/mL
